Source: US11040028B2, “Penicinotam derivative, preparation method and use thereof” (OCEAN UNIVERSITY OF CHINA, priority 2017, dated 2021)

Assays:
Format in all cases: cell-based
[1] = test system: cardiac fibroblast RAT-iCell-C002; test: Anti-fibrosis activity test: inhibition of proliferation of cardiac fibroblast RAT-iCell-C002 (CCK-8); settings: Cardiac fibroblast, 48 h
Procedure, shortened: (§1)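 A CCK-8 proliferation assay was run: cells at 2×10^4 cells/mL, adherent for 24 h, then incubated 48 h at 37° C with compound dilutions. A450 was recorded 2 h after CCK-8 addition and converted to percent inhibition versus blank for IC50 determination.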

[2] = test system: human embryonic lung fibroblast IMR-90; test: Anti-fibrosis activity test: inhibition of proliferation of human embryonic lung fibroblast IMR-90 (CCK-8)
Procedure, shortened: as §1

[3] = test system: NF-κB; test: Immunological activity test: inhibition of NF-κB activity; settings: initial concentration of 30 μM; a/b isomers given as first/second symbol; read-out: IC50 (μM), inhibitory activity against NF-κB
Procedure, shortened: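 Single-point testing at 30 μM preceded IC50 determination.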

[4] = test system: human lung fibroblasts HFL1; test: Anti-fibrosis activity test: inhibition of proliferation of human lung fibroblasts HFL1 (CCK-8); settings: Homo sapiens, HFL1, 48 h
Procedure, shortened: as §1

[5] = test system: BHK-21 cells; test: Anti-fibrosis activity test: inhibition of BHK-21 cell proliferation (CCK-8); settings: Mesocricetus auratus, BHK-21, 48 h
Procedure, shortened: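 Cells seeded at 2×10^4 cells/mL, allowed to adhere 24 hours, then exposed to graded compound concentrations in triplicate for 48 hours at 37° C, 5% CO2. CCK-8 added for 2 hours, absorbance read at 450 nm; inhibition versus blank control used to derive IC50. Pirfenidone served as positive control.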

[6] = test system: human hepatic stellate cells LX-2; test: Anti-fibrosis activity test: inhibition of proliferation of human hepatic stellate cells LX-2 (CCK-8); settings: Homo sapiens, 48 h
Procedure, shortened: as §1

[7] = test system: human dermal fibroblasts CCC-ESF-1; test: Anti-fibrosis activity test: inhibition of proliferation of human dermal fibroblasts CCC-ESF-1 (CCK-8); settings: Fibroblast
Procedure, shortened: as §1

[8] = test system: mouse macrophages (RAW264.7); test: Lipopolysaccharide-induced NO secretion in macrophages (Griess); settings: Mus musculus, RAW264.7, 24 h, RAW264.7, LPS 1 μg/ml, a/b isomers given as first/second symbol, read-out: IC50 (μM), inhibition of lipopolysaccharide-induced NO secretion in macrophages
Procedure, shortened: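 Absorbance at 548 nm after Griess reagent addition to culture supernatant gave NO content; inhibition rate was derived relative to blank control. Cells were mouse RAW264.7 macrophages exposed to compounds and 1 μg/ml LPS for 24 hours.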

[9] = test system: human fibrosarcoma cells HT-1080; test: Anti-fibrosis activity test: inhibition of proliferation of human fibrosarcoma cells HT-1080 (CCK-8); settings: Homo sapiens, HT-1080, 48 h
Procedure, shortened: as §1

[10] = cardiac fibroblast RAT-iCell-C002, CCK-8, 48 hours
[11] = human embryonic lung fibroblast IMR-90, CCK-8, 48 hours
[12] = human lung fibroblasts HFL1, CCK-8, 48 hours
[13] = CCK-8, 48 hours after administration
[14] = human hepatic stellate cells LX-2, CCK-8, 48 hours
[15] = human dermal fibroblasts CCC-ESF-1, CCK-8, 48 hours
[16] = human fibrosarcoma cells HT-1080, CCK-8, 48 hours
[17] = Homo sapiens, IMR-90 cells, 48 h, CCK-8
[18] = Homo sapiens, CCC-ESF-1 cells, 48 h, CCK-8

IC50 [3] | IC50 [8] | IC50 [9, 16] | IC50 ([9]; HT-1080 cells, 48 h, CCK-8) | Structure (SMILES) | IC50 [1, 10] | IC50 [2, 11] | IC50 [4, 12] | IC50 [5, 13] | IC50 [6, 14] | IC50 [7, 15] | IC50 ([1]; RAT-iCell-C002 cells, CCK-8) | IC50 [2, 17] | IC50 ([4]; HFL1 cells, 48 h, CCK-8) | IC50 ([5]; 48 h, CCK-8) | IC50 ([6]; LX-2, 48 h, LX-2 cells, CCK-8) | IC50 [7, 18]
0.1 to 1 µM | 1 to 10 µM | 0.05 to 5 mM | – | O=C1c2c(n(CCN3CCOCC3)c3ccccc3c2=O)-c2cccn21 [Compound 662a, 4-(2-Morpholinoethyl)-9H-pyrrolizino[1,2-b]quinoline-9,10(4H)-dione] | 0.05 to 5 mM | 0.05 to 5 mM | 0.05 to 5 mM | 0.05 to 5 mM | 0.05 to 5 mM | 0.05 to 5 mM | – | – | – | – | – | –
0.1 to 1 µM | 0.1 to 1 µM | 0.05 to 5 mM | – | O=C1c2c(n(Cc3ccccc3Cl)c3ccccc3c2=O)-c2cccn21 [Compound 600a, 4-(2-Chlorobenzyl)-9H-pyrrolizino[1,2-b]quinoline-9,10(4H)-dione] | 0.05 to 5 mM | 0.05 to 5 mM | 0.05 to 5 mM | 0.05 to 5 mM | 0.05 to 5 mM | 0.05 to 5 mM | – | – | – | – | – | –
1 to 10 µM | 1 to 10 µM | – | 0.05 to 5 mM | Cc1ccn2c1-c1c([nH]c3ccccc3c1=O)C2=O [Compound 797a, 1-Methyl-5H-pyrrolizino[2,1-b]quinoline-5,11(6H)-dione] | – | – | – | – | – | – | 0.05 to 5 mM | 0.05 to 5 mM | 0.05 to 5 mM | 0.05 to 5 mM | 0.05 to 5 mM | 0.05 to 5 mM
1 to 10 µM | 10 to 50 µM | 0.05 to 5 mM | – | O=C1c2c(n(Cc3ccccc3Br)c3ccccc3c2=O)-c2cccn21 [Compound 612a, 4-(2-Bromobenzyl)-9H-pyrrolizino[1,2-b]quinoline-9,10(4H)-dione] | 0.05 to 5 mM | 0.05 to 5 mM | 0.05 to 5 mM | 0.05 to 5 mM | 0.05 to 5 mM | 0.05 to 5 mM | – | – | – | – | – | –
10 to 50 µM | 1 to 10 µM | 0.05 to 5 mM | – | O=C1c2c(n(Cc3ccc(Cl)cc3)c3cccc(Cl)c3c2=O)-c2cccn21 [Compound 477a, 8-Chloro-4-(4-chlorobenzyl)-9H-pyrrolizino[1,2-b]quinoline-9,10(4H)-dione] | 0.05 to 5 mM | 0.05 to 5 mM | 0.05 to 5 mM | 0.05 to 5 mM | 0.05 to 5 mM | 0.05 to 5 mM | – | – | – | – | – | –
1 to 10 µM | 1 to 10 µM | 0.05 to 5 mM | – | CN(C)CCCOc1c2c(nc3ccccc13)-c1cccn1C2=O [Compound 658b, 9-(3-(dimethylamino)propoxy)-10H-pyrrolizino[1,2-b]quinolin-10-one] | 0.05 to 5 mM | 0.05 to 5 mM | 0.05 to 5 mM | 0.05 to 5 mM | 0.05 to 5 mM | 0.05 to 5 mM | – | – | – | – | – | –
0.1 to 1 µM | 1 to 10 µM | 0.05 to 5 mM | – | O=C1c2c(n(Cc3ccc(I)cc3)c3ccccc3c2=O)-c2cccn21 [Compound 575a, 4-(4-Iodobenzyl)-9H-pyrrolizino[1,2-b]quinoline-9,10(4H)-dione] | 0.05 to 5 mM | 0.05 to 5 mM | 0.05 to 5 mM | < 0.05 mM | 0.05 to 5 mM | 0.05 to 5 mM | – | – | – | – | – | –
1 to 10 µM | 1 to 10 µM | 0.05 to 5 mM | – | O=C1c2c(n(Cc3ccc(F)cc3)c3ccccc3c2=O)-c2cccn21 [Compound 588a, 4-(4-Fluorobenzyl)-9H-pyrrolizino[1,2-b]quinoline-9,10(4H)-dione] | 0.05 to 5 mM | 0.05 to 5 mM | 0.05 to 5 mM | 0.05 to 5 mM | 0.05 to 5 mM | 0.05 to 5 mM | – | – | – | – | – | –
1 to 10 µM | 1 to 10 µM | 0.05 to 5 mM | – | O=C1c2c(nc3ccccc3c2OCCN2CCNCC2)-c2cccn21 [Compound 98b, 9-(2-(piperazin-1-yl)ethoxy)-10H-pyrrolizino[1,2-b]quinolin-10-one] | 0.05 to 5 mM | 0.05 to 5 mM | 0.05 to 5 mM | 0.05 to 5 mM | 0.05 to 5 mM | 0.05 to 5 mM | – | – | – | – | – | –
0.1 to 1 µM | 1 to 10 µM | 0.05 to 5 mM | – | N#Cc1cccc2c1c(=O)c1c(n2Cc2ccc(F)cc2)-c2cccn2C1=O [Compound 462a, 4-(4-Fluorobenzyl)-9,10-dioxo-4,10-dihydro-9H-pyrrolizino[1,2-b]quinoline-8-carbonitrile] | 0.05 to 5 mM | 0.05 to 5 mM | 0.05 to 5 mM | < 0.05 mM | 0.05 to 5 mM | 0.05 to 5 mM | – | – | – | – | – | –
10 to 50 µM | 10 to 50 µM | 0.05 to 5 mM | – | O=C1c2c(nc3ccccc3c2OCc2ccc(-c3ccccc3)cc2)-c2cccn21 [Compound 649b, 9-([1,1′-biphenyl]-4-ylmethoxy)-10H-pyrrolizino[1,2-b]quinolin-10-one] | 0.05 to 5 mM | 0.05 to 5 mM | 0.05 to 5 mM | 0.05 to 5 mM | 0.05 to 5 mM | 0.05 to 5 mM | – | – | – | – | – | –
1 to 10 µM | 1 to 10 µM | – | 0.05 to 5 mM | CCOCCCOc1c2c(nc3ccccc13)-c1cccn1C2=O [Compound 672b, 9-(3-ethoxypropoxy)-10H-pyrrolizino[1,2-b]quinolin-10-one] | – | – | – | – | – | – | 0.05 to 5 mM | 0.05 to 5 mM | 0.05 to 5 mM | 0.05 to 5 mM | 0.05 to 5 mM | 0.05 to 5 mM
1 to 10 µM | 1 to 10 µM | 0.05 to 5 mM | – | O=C1c2c(nc3ccccc3c2OCc2ccc(F)cc2Cl)-c2cccn21 [Compound 572b, 9-((2-chloro-4-fluorobenzyl)oxy)-10H-pyrrolizino[1,2-b]quinolin-10-one] | 0.05 to 5 mM | 0.05 to 5 mM | 0.05 to 5 mM | 0.05 to 5 mM | 0.05 to 5 mM | 0.05 to 5 mM | – | – | – | – | – | –
10 to 50 µM | 1 to 10 µM | 0.05 to 5 mM | – | O=C1c2c(nc3cccc(Cl)c3c2OCc2ccc(Cl)cc2)-c2cccn21 [Compound 477b, 8-chloro-9-((4-chlorobenzyl)oxy)-10H-pyrrolizino[1,2-b]quinolin-10-one] | 0.05 to 5 mM | 0.05 to 5 mM | 0.05 to 5 mM | 0.05 to 5 mM | 0.05 to 5 mM | 0.05 to 5 mM | – | – | – | – | – | –
1 to 10 µM | 1 to 10 µM | 0.05 to 5 mM | – | O=C(Oc1c2c(nc3ccccc13)-c1cccn1C2=O)c1ccco1 [Compound 95b, 10-oxo-10H-pyrrolizino[1,2-b]quinolin-9-ylfuran-2-carboxylate] | 0.05 to 5 mM | 0.05 to 5 mM | 0.05 to 5 mM | 0.05 to 5 mM | < 0.05 mM | 0.05 to 5 mM | – | – | – | – | – | –
0.1 to 1 µM | 1 to 10 µM | < 0.05 mM | – | O=C1c2c(nc3ccccc3c2OCc2ccc(F)c(F)c2F)-c2cccn21 [Compound 584b, 9-((2,3,4-trifluorobenzyl)oxy)-10H-pyrrolizino[1,2-b]quinolin-10-one] | 0.05 to 5 mM | 5 to 20 mM | 0.05 to 5 mM | 0.05 to 5 mM | 0.05 to 5 mM | 0.05 to 5 mM | – | – | – | – | – | –
1 to 10 µM | 1 to 10 µM | 0.05 to 5 mM | – | CC(C)(C)COc1c2c(nc3ccccc13)-c1cccn1C2=O [Compound 656b, 9-(neopentyloxy)-10H-pyrrolizino[1,2-b]quinolin-10-one] | 0.05 to 5 mM | 0.05 to 5 mM | 0.05 to 5 mM | 0.05 to 5 mM | 0.05 to 5 mM | 0.05 to 5 mM | – | – | – | – | – | –
10 to 50 µM | 1 to 10 µM | 0.05 to 5 mM | – | N#Cc1ccc2c(O)c3c(nc2c1)-c1cccn1C3=O [Compound 512b, 9-hydroxy-10-oxo-10H-pyrrolizino[1,2-b]quinoline-6-carbonitrile] | 0.05 to 5 mM | 0.05 to 5 mM | 0.05 to 5 mM | 0.05 to 5 mM | < 0.05 mM | 0.05 to 5 mM | – | – | – | – | – | –
